From patent US5364944A, “Substituted benzoylbenzene-, biphenyl- and 2-oxazole- alkanoic acid compounds” (American Home Products Corporation, priority 1993, dated 1994)
Counter-ions that a name gives are not always drawn. Like-named read-outs stand apart in the source and are kept apart here.

Experiments:
LTB4 = test: Reverse passive Arthus pleurisy assay, inflammatory mediator release: LTB4; assay type: in vivo, rat (male Lewis); conditions: for % Inhibition of LTB4 Synthesis: 3 hours before challenge; for % Inh LTB4: standard drugs
Procedure: The compounds of the invention are further tested in the reverse passive Arthus pleurisy assay to evaluate their effectiveness in inflammatory mediator release and/or the fluid and cellular phases of an inflammatory response.
(§1) This assay is carried out as follows:
A reverse passive Arthus reaction is induced in the pleural cavity of male Lewis rats (150-200 g; fasted overnight prior to use) by the intravenous administration of bovine serum albumin (BSA; 4 mg/0.2 ml) followed 30 minutes later by the injection of rabbit anti-BSA (1 mg/0.2 ml; lyophilized IgG fraction; Organon Teknika, West Chester, Pa.) into the right pleural space under halothane anesthesia. […] Animals are sacrificed at either the time of peak eicosanoid production (i.e. 5 minutes after anti-BSA for immunoreactive TxB2 10 minutes for immunoreactive LTB4, 20 minutes for immunoreactive LTC4) or at the time of peak neutrophil infiltration (4 hours after anti-BSA) by CO2 inhalation. The pleural cavity is then exposed, the fluid exudate removed by gentle vacuum aspiration and the volume of exudate is recorded. For the determination of cellular infiltration, the pleural cavity is rinsed with 3 ml of 0.1% EDTA in sterile saline, and the recovered wash is pooled with the exudate. Cell number is determined on a model ZBI Coulter counter. For determination of eicosanoid production, undiluted pleural exudate is microfuged and the supernatant is extracted with ethanol (8-10 times volume). Extracts are either stored at -20° C., or are evaporated to dryness under a stream of N2 and reconstituted in radioimmunoassay (RIA) buffer.
Eicosanoids are quantitated by RIA according to the procedure specified by the RIA kit manufacturer (Advanced Magnetics, Cambridge, Mass.). Briefly, 100 μl of ^3 H-labeled eicosanoid and 100 μl of specific antibody are sequentially added to 100 μl of extracted pleural exudate in BGG -phosphate buffer which contains 0.01 M phosphate, 0.1% bovine gamma globulin and 0.1% sodium azide at pH 7.0. Antibody-bound eicosanoid is separated from unbound eicosanoid by the addition of 750 μl of dextran (0.4%)-coated charcoal (0.4% Norit A) containing 0.1% sodium azide. The mixture is centrifuged at 2000 RPM at 5° C. for 15 minutes to pellet the charcoal and adsorbed unbound eicosanoid. Antibody-bound labeled eicosanoid is quantitated by counting in a liquid scintillation counter, and is correlated to concentration by a standard curve.
Inflammatory cells are expressed as 10^6 cells/ml, pleural exudate is expressed as ml of fluid, and the amount of eicosanoids in the pleural cavity is expressed as ng/ml of exudate. Mean ±S.E.M. is determined for each group. Percent inhibition (% I) of cell number, exudate volume and eicosanoid production is calculated for vehicle-treated control groups, and the responses in drug-treated rats are then expressed as the mean % I of the control. […] Exp. Ther., 96, 99-113 (1949).

[1] = system: 5-lipoxygenase in human whole blood; test: Inhibition of 5-lipoxygenase in human whole blood (LTB4); assay type: cell-based
Procedure: The assay of this Example measures the ability of the compounds tested to inhibit 5-lipoxygenase in human whole blood.
as §1
Blood is obtained in 50-100 ml quantities from male donors. White blood cell counts and differentials are made. Two ml of blood are placed in a 15 ml polypropylene test tube. Compounds are solubilized in dimethylsulfoxide and diluted 1:10 in 10% bovine serum albumin in phosphate buffered saline, pH 7.4 resulting in a final dimethylsulfoxide concentration of 0.1% in the blood. Then, compounds are added to the blood in a shaking water bath at 37° C. for 10 minutes prior to the addition of 30 μM calcium ionophore (A23187; Sigma). After ionophore administration, whole blood samples are mixed and incubated for 20 minutes at […] in a shaking water bath. Incubation is terminated by placing samples in an ice bath and immediately adding ethylene glycol-bis-(β-aminoethyl ether)-N,N,N',N'-tetraacetic acid (10 mM). Samples are mixed and centrifuged at 1200×g for 15 minutes at 4° C. Preparation of samples for evaluation by RIA or ELISA is carried out by the following protocol. Plasma is removed from sample tubes, placed in 15 ml polypropylene test tubes containing 8 ml methanol, and then vortexed to precipitate protein. Samples are stored at -70° C. overnight. The next day, samples are centrifuged at 200×g for 15 minutes at 4° C. to pellet the precipitate. Samples are dried in a Savant speed vac concentrator, reconstituted to original volume with ice cold RIA or ELISA buffer, and stored at -70° C. until assayed. The assay for eicosanoids (LTB4, TxB2, and PGE2) is performed as described by the manufacturer of the [^3 H]-RIA kit or ELISA kit (LTB4 -Amersham, TxB2 and PGE2 - Caymen Chemical).
The total eicosanoid level in 2 ml of blood is calculated and reported as ng/10^6 neutrophils. […] Drug effects are expressed as percent change from control values.
Compounds tested in vitro are solubilized in dimethylsulfoxide and diluted 1:10 in 10% bovine serum albumin in phosphate buffer saline resulting in a final dimethylsulfoxide concentration of 0.1% in the blood.

[2] = target: T1, LTD4-induced contractions of isolated guinea pig trachea (Cavia porcellus, UniProt Q2NNR5); test: In vitro isolated guinea pig trachea assay, LTD4 antagonist activity; set-up: species or system guinea pig (male Hartley); conditions: 1 × 10^-5 M
T1 construct: isolated guinea pig trachea; from tissue; host or cells: tracheal rings of male Hartley guinea pigs
T1 sequence (Q2NNR5 1-340): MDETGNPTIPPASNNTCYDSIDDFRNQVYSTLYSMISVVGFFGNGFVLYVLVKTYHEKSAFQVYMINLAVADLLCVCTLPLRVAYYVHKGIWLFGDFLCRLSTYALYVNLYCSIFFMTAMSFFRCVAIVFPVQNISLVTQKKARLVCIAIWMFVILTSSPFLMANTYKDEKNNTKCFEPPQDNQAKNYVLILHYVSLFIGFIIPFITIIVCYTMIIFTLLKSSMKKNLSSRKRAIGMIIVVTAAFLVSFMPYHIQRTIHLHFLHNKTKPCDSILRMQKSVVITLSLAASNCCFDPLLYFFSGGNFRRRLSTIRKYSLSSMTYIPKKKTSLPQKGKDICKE
Procedure: The LTD4 antagonist activity of the compounds of the invention is assessed in the in vitro isolated guinea pig trachea assay. This assay is carried out as follows: Male Hartley guinea pigs (350-400 g) are euthanized by a blow to the head, the neck is opened and the trachea removed. The trachea is maintained in aerated physiological salt solution, cleared of connective tissue and fat and cut into rings approximately 2 mm in width (usually containing two cartilaginous segments per ring). Two pieces of silk suture are then passed through the lumen of the tracheal ting and are tied around the cartilage, one on each side of the trachealis muscle. The tracheal ring is suspended between a glass hook and a force displacement transducer in a 10 ml organ bath for measurement of isometric tension. […] The tracheal rings are maintained at 2 g resting tension and equilibrated for 45 minutes (with frequent washing and readjustment of resting tension). The tracheal […] contracted by the addition of carbachol (3×10^-6 M), to determine tissue responsiveness and establish a reference contraction. On attainment of a stable level of contraction (approximately 30 minutes), the tissues are washed several times until baseline tension has been restored and the re-equilibrated for 30 minutes. The tissues are then incubated for 45 minutes with a test antiagonist (either 1×10^-6 M or 1×10^-5 M) or 10 μl of an appropriate solvent control (control, nontreated). One tissue in each group serves as the control. Twenty minutes prior to the construction of the LTD4 cumulative concentration-response curve, L-[…]×10^-2 M final bath concentration) is added to inhibit bioconversion of LTD4 to LTE4. Only one LTD4 concentration-response curve is constructed in each tissue. All responses to LTD4 in an individual tissue are measured as a percentage of the reference contraction of that tissue to carbachol. LTD4 antagonist activity is determined by comparison of the concentration response curves of LTD4 in the presence and absence of antagonist. Assessment of the relative rightward shift of the antagonist treated curve relative to the solvent (control) treated tissue is calculated as a concentration ratio (Eq. A) and used in subsequent calculations to derive an antagonist pKB value (Eqs. B and C). […] If a compound is found to be active and/or depress the maximal response to LTD4, then a range of concentrations of the test compound should be used generating multiple concentration ratios which would then be used to perform a Schild analysis, and determination of a pA2 value where appropriate.

Structure (SMILES)	Kb [2] [µM]	% Inhibition of LTB4 Synthesis (LTB4; 25 mg/kg p.o.) [%]	% Inhibition of LTB4 ([1]; at 25 μM) [%]	also measured
CN(O)C(=O)Cc1ccc(-c2ccc(OCc3nc4ccccc4s3)cc2)c(F)c1 [Example 26]	> 10	7	86	IC50 [1]: 1.3 µM
O=C(O)CCc1nc(-c2ccc(OCc3ccc4ccccc4n3)cc2)c(-c2ccccc2)o1 [Example 10]	–	65	–	–
CC(C(=O)N(C)O)c1ccc(-c2ccc(OCc3nc4ccccc4s3)cc2)cc1 (stereo not shown) [Example 17, N-Hydroxy-N.,a,-dimethyl-4'-(2-benzothiazolylmethoxy)[1,1'-biphenyl]-4-acetamide, sodium salt, methanol solvate]	> 3.16	37	–	–
CC(C(=O)O)c1cccc(C(=O)c2ccccc2)c1 (stereo not shown) [ketoprofen, reference compound]	–	–	–	% Inh LTB4 (LTB4; 10 mg/kg p.o.): 35%
O=C(O)Cc1ccccc1Nc1c(Cl)cccc1Cl [Diclofenac, reference compound]	–	–	–	% Inh LTB4 (LTB4; 10 mg/kg p.o.): 0%
CC(C)N(O)C(=O)Cc1ccc(-c2ccc(OCc3csc(-c4ccccc4)n3)cc2)cc1 [Example 20, N-Hydroxy-N-isopropyl-4'-[(2-phenylthiazol-4yl)methoxy][1,1'-biphenyl]-4-acetamide]	–	19	93	pKB [2]: < 5.2
CN(O)C(=O)Cc1ccc(-c2ccc(OCc3csc(-c4ccccc4)n3)cc2)cc1 [Example 18]	> 7.94	32	97	IC50 [1]: 0.5 µM
O=C(O)Cc1ccc(-c2ccc(OCc3ccc4ccccc4n3)cc2)c(F)c1 [Example 2, 2-Fluoro-4'-(2-quinolinylmethoxy)-[1,1'-biphenyl]-4-acetic acid]	0.631	34	5	–
CC(C(=O)N(C)O)c1ccc(-c2ccc(OCc3nc4ccccc4s3)cc2)cc1 (stereo not drawn) [Example 16, N-Hydroxy-N,α-dimethyl-4'-(2-benzothiazolylmethoxy)[1,1'-biphenyl]-4-acetamide]	–	46	72	IC50 [1]: 8.3 µM
CN(O)C(=O)Cc1cccc(C(=O)c2ccc(OCc3nc4ccccc4s3)cc2)c1 [Example 30, 2-{3-[4-(Benzothiazol-2-ylmethoxy)-benzoyl]-phenyl}-N-hydroxy-N-methyl-4-acetamide 0,6 ethyl acetate solvate]	–	21	–	IC50 [1]: 0.98 µM; % Inhibition of LTB4 ([1]; at 10 μM): 96%

Further lines, with some results ahead:

Kb [2] [µM]	Structure (SMILES)	% Inhibition of LTB4 Synthesis (LTB4; 25 mg/kg p.o.) [%]	% Inhibition of LTB4 ([1]; at 25 μM) [%]	also measured
1	CC(C(=O)N(C)O)c1ccc(-c2ccc(OCc3nc4ccccc4n3C)cc2)cc1 (stereo not drawn) [Example 24, N-Hlydroxy-N,α-dimethyl-4'-[(1-methyl-1H-benzimidazol-2-yl)methoxy]-[1,1'-biphenyl]-4-acetamide, hydrochloride salt]	56	–	–
> 10	CC(C)N(O)C(=O)Cc1ccc(-c2ccc(OCc3nc4ccccc4s3)cc2)cc1 [Example 15, N-Hydroxy-N-isopropyl-4'-(2-benzothiazolymethoxy)[1,1'-biphenyl]-4-acetamide]	–	77	% Inhibition of LTB4 Synthesis (LTB4; 10 mg/kg p.o.): 12%
5.01	CC(C(=O)N(C)O)c1ccc(-c2ccc(OCc3csc(-c4ccccc4)n3)cc2)cc1 (stereo not drawn) [Example 22, N-Hydroxy-N,α-dimethyl-4'-[(2-phenylthiazol-4-yl)methoxy][1,1'-biphenyl]-4-acetamide,sodium salt, hydrate]	–	–	% Inhibition of LTB4 Synthesis (LTB4; 25 mg/kg p.o., sodium salt, hydrate): 37%; % Inhibition of LTB4 ([1]; at 25 μM, sodium salt, hydrate): 74%; IC50 ([1]; sodium salt, hydrate): 9 µM
> 10	CC(c1ccc(-c2ccc(OCc3nc4ccccc4s3)cc2)cc1)N(O)C(N)=O (stereo not shown) [Example 33, 1-{1-[4'-(Benzothiazol-2-ylmethoxy)biphenyl-4-yl]-ethyl}-1-hydroxy-urea]	2	–	% Inhibition of LTB4 ([1]; at 10 μM): 10%
